Source: the supplement of paper PMC10307832

Columns and labels:
Experiment in all cases: relative viability (nuclei count vs DMSO), 5 days (fraction); higher = more cells survive
[1] = compound: CCn1c(-c2nonc2N)nc2c(C#CC(C)(C)O)ncc(OC[C@H]3CCCNC3)c21 + Nc1ncn([C@H]2C[C@H](O)[C@@H](CO)O2)c(=O)n1 [Decitabine] (partner 2 µM)
How it was run: (§1)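 Five library-drug doses in √10 steps were combined with a fixed anchor-drug dose, or a single drug was given alone, by pin tool to lung cancer cell lines in 1536-well plates the day after seeding. Nuclei were stained and counted after 5 days. Relative viability is the nuclei count in treated wells over that in vehicle wells, taken as the median of duplicate plates.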

[2] = compound: CCOC1=CC=CC=C1N=NC2=C(NN(C2=O)C3=NC(=CS3)C4=CC=CC=C4)C [BAM7] + CCNC(=O)c1noc(-c2cc(C(C)C)c(O)cc2O)c1-c1ccc(CN2CCOCC2)cc1 [Luminespib] (partner 0.01 µM)
How it was run: as §1

[3] = compound: CCn1c(-c2nonc2N)nc2c(C#CC(C)(C)O)ncc(OC[C@H]3CCCNC3)c21 + C[C@]1(O)C[C@@H](c2nc(-c3ccc4ccc(-c5ccccc5)nc4c3)c3c(N)nccn32)C1 [Linsitinib] (partner 1 µM)
How it was run: as §1

[4] = compound: CCOC1=CC=CC=C1N=NC2=C(NN(C2=O)C3=NC(=CS3)C4=CC=CC=C4)C [BAM7] + O=C(c1cc(Cc2n[nH]c(=O)c3ccccc23)ccc1F)N1CCN(C(=O)C2CC2)CC1 [Olaparib] (partner 8 µM)
How it was run: as §1

| Cell Line | relative viability ([1]; first compound 0.01 µM) | relative viability ([1]; first compound 0.03162 µM) | relative viability ([1]; first compound 0.1 µM) | relative viability ([1]; first compound 0.3162 µM) | relative viability ([1]; first compound 1 µM) | relative viability ([2]; first compound 0.5 µM) | relative viability ([2]; first compound 5 µM) | relative viability ([2]; first compound 15.81 µM) | relative viability ([2]; first compound 50 µM) | relative viability ([3]; first compound 0.01 µM) | relative viability ([3]; first compound 0.03162 µM) | relative viability ([3]; first compound 0.1 µM) | relative viability ([3]; first compound 0.3162 µM) | relative viability ([3]; first compound 1 µM) | relative viability ([4]; first compound 0.5 µM) | relative viability ([4]; first compound 5 µM) | relative viability ([4]; first compound 15.81 µM) | relative viability ([4]; first compound 50 µM) |
| --- | --- | --- | --- | --- | --- | --- | --- | --- | --- | --- | --- | --- | --- | --- | --- | --- | --- | --- |
| 201T | 0.879 | 0.822 | 0.888 | 0.837 | 0.866 | 0.984 | 1.11 | 0.793 | 1.01 | 1.05 | 1.1 | 0.986 | 1.03 | 1.02 | 0.774 | 0.746 | 0.691 | 0.765 |
| A549 | 0.207 | 0.202 | 0.292 | 0.27 | 0.215 |  |  |  |  | 0.681 | 0.624 | 0.444 | 0.505 | 0.647 | 0.323 | 0.319 | 0.432 | 0.476 |
| A-427 | 0.558 | 0.61 | 0.589 | 0.54 | 0.562 | 0.949 | 0.715 | 0.886 | 1.03 | 1.13 | 1.05 | 1.15 | 1.1 | 1.13 | 0.707 | 0.736 | 0.756 | 0.762 |
| ABC-1 | 1.18 |  | 1.2 | 0.97 | 1.02 | 0.291 | 0.496 | 0.469 | 0.773 | 0.818 | 0.73 | 0.847 | 0.685 | 0.526 | 0.765 | 1.25 | 0.638 | 0.559 |
| BEN | 0.682 | 0.693 | 0.569 | 0.67 | 0.782 | 0.444 | 0.494 | 0.382 | 0.272 | 0.9 | 1.08 | 0.772 | 0.767 | 0.967 | 1.2 | 1.09 | 0.809 | 1.04 |
| CAL-12T |  |  |  |  |  | 0.327 | 0.374 | 0.491 | 0.508 | 0.878 | 0.784 | 0.819 | 0.802 | 0.715 | 0.764 | 0.653 | 0.652 | 0.711 |
| COR-L23 | 0.429 | 0.353 | 0.348 | 0.352 | 0.38 | 0.635 | 0.661 | 0.601 | 0.647 | 0.891 | 0.946 | 0.884 | 0.805 | 0.829 | 0.379 | 0.343 | 0.332 | 0.346 |
| COR-L 105 | 0.651 | 0.681 | 0.651 | 0.749 | 1.58 | 0.668 | 0.892 | 0.706 | 0.734 | 1.1 | 0.848 | 1.29 | 0.747 | 0.81 | 0.806 | 0.746 | 0.665 | 0.707 |
| Calu-6 |  |  |  |  |  |  |  |  |  | 0.88 | 1.06 | 0.842 | 0.952 | 0.935 | 0.552 | 0.598 | 0.53 | 0.531 |
| ChaGo-K-1 | 0.483 | 0.5 | 0.559 | 0.487 | 0.533 | 0.509 | 0.573 | 0.58 | 0.613 |  |  |  |  |  | 0.377 | 0.377 | 0.292 | 0.396 |
| EBC-1 |  |  |  |  |  |  |  |  |  | 0.947 | 0.776 | 0.837 | 0.732 | 0.632 | 0.712 | 0.644 | 0.626 | 0.763 |
| EKVX | 0.325 | 0.37 | 0.369 | 0.347 | 0.337 | 0.909 | 0.925 | 0.618 | 0.803 | 0.997 | 0.952 | 1.03 | 0.954 | 0.976 | 0.863 | 0.929 | 0.839 | 0.788 |
| EMC-BAC-2 | 0.966 |  | 0.996 | 0.916 | 1.04 | 1.13 | 1.28 | 1.12 | 1.15 | 0.82 | 0.852 | 0.837 | 0.828 | 0.837 | 0.485 | 0.476 | 0.469 | 0.565 |
| EPLC-272H | 0.413 | 0.378 | 0.349 | 0.347 | 0.356 | 0.317 |  | 0.317 | 0.507 | 1.24 | 1.21 | 1.03 | 1.17 | 1.39 | 0.465 | 0.935 | 0.594 | 0.651 |
| H3255 | 0.614 | 0.58 | 0.639 | 0.546 | 0.6 | 0.801 | 1.12 | 0.787 | 1.03 | 0.958 | 1.09 | 0.903 | 0.888 | 0.843 | 0.597 | 0.666 | 0.417 | 0.405 |
| HARA | 0.508 | 0.486 | 0.656 | 0.551 | 0.498 | 0.678 | 0.868 | 0.682 | 0.66 | 0.861 | 0.961 | 0.973 | 0.947 | 1.11 | 0.96 | 0.838 | 0.827 | 0.809 |
| HCC-15 | 0.695 | 0.648 | 0.637 | 0.558 | 0.571 | 0.338 | 0.439 | 0.4 | 0.187 | 0.798 | 0.932 | 0.856 | 0.816 | 0.828 | 0.849 | 0.695 | 0.687 | 0.728 |
